Assay: gradient 5% acetonitrile 3 min, to 50% in 2 min, to 85% in 15 min, held 3 min, 100 µL/min
Settings: column: Zorbax Extend-C18 2.1 x 50 mm; eluents: water / acetonitrile, 0.1% formic acid
Method in brief: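 In both positive and negative ionization mode, a quadrupole time-of-flight mass spectrometer coupled to HPLC analyzed pure standards run in mixtures of ~100 molecules. The Zorbax Extend-C18 column (2.1 × 50 mm, 1.8 μm) was operated at 100 μL/min with water and acetonitrile, each containing 0.1% formic acid. The dead volume was 40 μL and the dwell volume 900 μL. Retention time came from adduct peaks that were computationally picked and individually inspected by hand.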

Row | RP-LC retention time | Compound
1 | 1100 s | COc1cc(NS(=O)(=O)c2ccc(Nc3nc(-c4ccc(C)cc4)cs3)cc2)nc(OC)n1
2 | 982 s | Cc1cccc(CNC(=O)CCC2CCN(S(=O)(=O)c3ccccc3C)CC2)c1
3 | 1000 s | Cc1nn(-c2ccccc2)c(C)c1S(=O)(=O)N1CCC(C(=O)Nc2cc(F)ccc2F)CC1
4 | 716 s | CCCNc1cc(N2CCC(CCC(=O)NCc3ccc(C)cc3)CC2)ncn1
5 | 1040 s | CN1C(=O)CCc2cc(NS(=O)(=O)c3ccc(Cl)c(Cl)c3)ccc21
6 | 643 s | CN(CCc1noc(C2CN(Cc3cccc(C(F)(F)F)c3)C2)n1)S(C)(=O)=O
7 | 936 s | COc1ccc(C)cc1NC(=O)Cn1nc2c(Oc3cccc(F)c3)nccn2c1=O
8 | 911 s | COC(=O)c1ccccc1NC(=O)Cn1c(=O)n(-c2ccccc2)c(=O)c2c1cc(C)n2C
9 | 690 s | COc1ccc(CC(=O)NCCc2cn(C)c3ncccc23)c(Cl)c1
10 | 683 s | COC(=O)c1ccc(NC(=O)CSc2ncnc3c2nnn3C)cc1
11 | 795 s | CSc1ccc(-c2nc3ccc(C)cn3c2Nc2ccccc2C)cc1
12 | 964 s | CC(C)CNC(=O)NC1CCN(c2nc3cccnc3n(Cc3ccccc3)c2=O)CC1
13 | 1110 s | COc1nc2ccccc2nc1N1CCCC(C(=O)NCc2ccc(Cl)cc2)C1 (configuration not stated)
14 | 801 s | CCc1nnc(-c2ccc(NS(=O)(=O)c3cccc(OC)c3)cc2)o1
15 | 837 s | Cc1cc2c(c(=O)n(-c3ccc(F)cc3)c(=O)n2CC(=O)Nc2ccccc2F)n1C
16 | 762 s | Cc1cc(C)c(S(=O)(=O)Nc2ccc(Cn3cncn3)cc2)cc1C
17 | 703 s | Cc1oc(-c2[nH]ncc2C(=O)N(C)C)cc1S(=O)(=O)Nc1ccc(Cl)cc1
18 | 1150 s | CC(C)Oc1ccc(-c2noc(Cn3ncn4nc(-c5cccs5)cc4c3=O)n2)cc1
19 | 743 s | COc1ccc(OCc2noc(CNC(=O)Nc3cc(OC)c(OC)c(OC)c3)n2)cc1
20 | 599 s | COc1ccc(-c2nc(Cn3ccnc3)no2)cc1
21 | 1270 s | COc1cccc(C2Cn3nnc(-c4nc(-c5ccc(C)c(C)c5)no4)c3CO2)c1 (configuration not stated)
22 | 1010 s | CCc1cccc(C)c1Nc1c(-c2ccc(F)cc2)nc2cnccn12
23 | 582 s | Fc1ccc(Nc2ncnc3nc[nH]c23)cc1
24 | 1010 s | CCOc1ccccc1-c1nc(-c2cn(Cc3cccc(F)c3)nn2)no1
25 | 1110 s | CCc1ccccc1-n1c(-c2ccc(Cl)cc2)cn2c3c(=O)n(C)c(=O)n(C)c3nc12
26 | 717 s | COc1ccc(-c2nc3ncccn3c2NCc2ccccc2)cc1

Further lines, the compound ahead of its results:

Row | Compound | RP-LC retention time
27 | CCOc1ccc(CN2C[C@@H]3C(=O)N(CCCN4CCCC4=O)C(=O)[C@@H]3C2)cc1 | 610 s
28 | Cc1ccc2nc(-c3ccc(O)cc3)c(Nc3ccc4c(c3)OCCO4)n2c1 | 646 s
29 | Cc1oc(C(C)C)nc1C(=O)NCc1cccs1 | 897 s
30 | CCOC(=O)c1c(-c2ccccc2)csc1NC(=O)c1ccccc1C(=O)O | 963 s
31 | Cc1ccc(-n2c(N3CCC(C(=O)NCCC(C)C)CC3)nc3ccsc3c2=O)cc1 | 890 s
32 | Cc1cc(NC(=O)c2cc(-c3cccs3)[nH]n2)sn1 | 672 s
33 | CN(C(=O)Cn1cnc2c(-c3ccc(Cl)cc3)csc2c1=O)c1ccc(F)cc1 | 1180 s
34 | Cc1noc(-c2nn(C)c3c2CN(C(=O)c2ccc(Br)cc2)CC3)n1 | 774 s
35 | CC(C)NC(=O)c1ccc2ccnc(N3CCN(c4ccc(Cl)cc4)CC3)c2c1 | 816 s
36 | Cn1cc(S(=O)(=O)N2CCCCC2)cc1C(=O)Nc1ccc2c(c1)OCO2 | 924 s
37 | CN(C(=O)Cn1cncc(C(=O)NC2CCCC2)c1=O)c1ccccc1 | 767 s
38 | Cc1cccc(NC(=O)NCC2CCOCC2)c1C | 704 s
39 | CC(C)n1cnc(S(=O)(=O)N2CCC(C(=O)N3CCN(c4cccc(Cl)c4)CC3)CC2)c1 | 876 s
40 | Cn1c(=O)c(N2CCCC(C(=O)NCCCN3CCC(N4CCCCC4)CC3)C2)nc2cccnc21 (configuration not stated) | 568 s
41 | O=C1Nc2ccccc2C12OCC1(CO2)COC2(OC1)C(=O)Nc1ccccc12 (configuration not stated) | 784 s
42 | O=C(NCCc1c[nH]c2ccccc12)C(=O)Nc1ccc2c(c1)OCCO2 | 825 s
43 | CCOC(=O)N1CCN(S(=O)(=O)c2cc(N3C(=O)CCS3(=O)=O)ccc2C)CC1 | 729 s
44 | CCC(C)C(NC(=O)c1ccc2c(c1)OCO2)C(=O)Nc1nc2ccccc2[nH]1 (configuration not stated) | 718 s
45 | Cc1sc2cc(C(=O)N3CCN(c4ccc(F)cc4)CC3)[nH]c2c1CN1CCOCC1 | 690 s
46 | O=C1NCCCCCN(C(=O)c2ccc(Cn3ccnc3)o2)[C@H]2CCC[C@@H]12 | 567 s
47 | CCOc1ccccc1NC(=O)N1CCC2(CC1)NC(=O)c1ccccc1O2 | 810 s

Row | Compound | RP-LC retention time
48 | CCC(=O)Nc1c(C(=O)NC)oc2ccccc12 | 712 s
49 | Cc1ccn2cc(C(=O)NC3CCCC3)nc2c1 | 600 s
50 | Cn1cc(-c2cc3n(n2)CCCN3C(=O)CCC(=O)N2CCN(c3ccccn3)CC2)c2ccccc21 | 621 s
51 | CC(C)(C)NC(=O)NC1CCN(C(=O)C2CCC2)C1 (configuration not stated) | 636 s
52 | O=C(NC(c1nnc(-c2ccccc2)o1)c1ccccc1F)c1ccco1 (configuration not stated) | 851 s
53 | CC(C)(C)C(=O)N1CCCC(C(=O)N2CCOCC2)C1 (configuration not stated) | 625 s
54 | CC(NC(=O)c1ccc(Oc2nccnc2N2CCSCC2)cc1)c1ccc(F)cc1 (configuration not stated) | 965 s
55 | O=C(Cc1csc(NC(=O)NC2CCCCC2)n1)NCCc1ccc(Cl)cc1 | 805 s
56 | CCc1nnc2ccc(-c3noc(-c4cccc(Cl)c4)n3)cn12 | 1070 s
57 | NS(=O)(=O)C#Cc1ccccc1 | 729 s
58 | O=C(CC1CCCN(c2cn[nH]c(=O)c2)C1)N1CCSCC1 (configuration not stated) | 617 s
59 | CCCC(=O)Nc1ccc2c(c1)nc(CN1CCN(S(C)(=O)=O)CC1)n2CC | 608 s
60 | CC(=O)N[C@@H]1CN(C(=O)c2ccc3ncccc3c2)C[C@H]1CO | 536 s
61 | CCOC(=O)CC1(NC(=O)N2CCN(c3nc4ccccc4nc3C(F)(F)F)CC2)CCCCC1 | 1230 s
62 | COc1nc2ccccc2nc1N1CCCC(C(=O)N2CCN(c3ccccc3)CC2)C1 (configuration not stated) | 1220 s
63 | O=C(CC1CCN(C(=O)c2ccccc2)CC1)N1CCN(c2ccccn2)CC1 | 582 s
64 | COCCN1C(=O)c2ccccc2C(C(=O)NCc2ccccc2F)C12CCCCC2 (configuration not stated) | 877 s
65 | CCCN(CC1CCOC1)C(=O)c1ccccc1Br (configuration not stated) | 801 s
66 | CC(C)C(=O)NCC(c1ccccc1Cl)c1c[nH]c2ccccc12 (configuration not stated) | 929 s
67 | O=C(c1ccc(CS(=O)c2cccc(Cl)c2)o1)N1CCN(c2ccccn2)CC1 (configuration not stated) | 602 s

Reference: the METLIN SMRT retention time set (Domingo-Almenara et al. 2019)
